In US9163018B2, “Method of treatment of age-related macular degeneration (AMD)” (Prana Biotechnology Limited, priority 2006, dated 2015):
Like-named read-outs stand apart in the source and are kept apart here.

Columns and labels:
[1] = test system: Abeta in extract of post-mortem human AD brain tissue; assay: BAS: human brain amyloid solubilization assay; format: biochemical
Description: Assay 5. Human Brain Amyloid Solubilization Assay
This assay was performed in order to assess the ability of a test compound to mobilise Aβ, as an example form of amyloid, from the insoluble to the soluble phase of an extract of tissue from post mortem human AD brain.
Up to 0.5 g of plaque-bearing cortex without meninges was homogenized using a DIAX 900 homogenizer (Hendolph and Co, Kelheim, Germany) or other suitable device for three 30-second periods at full speed in 2 ml of ice-cold phosphate-buffered saline, pH 7.4. To obtain the phosphate-buffered saline-extractable fraction, the homogenate was centrifuged at 100,000×g for 30 min and the supernatant removed. Alternatively, the tissue was freeze dried then pulverized to form a powder which was then weighed out into aliquots for extraction as above. Supernatant, either freeze-dried and resuspended or in unconcentrated form, was dissolved in 200 μl of Tris-Tricine sodium dodecyl sulfate (SDS) sample buffer pH 8.3 containing 8% SDS, 10% 2-mercaptoethanol. Aliquots (10 μl) were then boiled for 10 minutes before SDS-polyacrylamide gel electrophoresis. The insoluble fraction of the cortical samples was obtained by resuspending the initial pelleted sample in 1 ml of phosphate-buffered saline, A 50-μl aliquot of this suspension was then boiled in […] of sample buffer as above.
Tris-Tricine polyacrylamide gel electrophoresis was performed by loading appropriately diluted samples on to 10% to 20% gradient gels (Novex, San Diego, Calif.) followed by transfer on to 0.2-μm nitrocellulose membrane (Bio-Rad, Hercules, Calif.). Aβ was detected by using monoclonal antibody W02, which detects residues 5 through 8, […] (or another suitable antibody) in conjunction with horseradish peroxidase-conjugated rabbit anti-mouse IgG (Dako, Denmark), and visualized by using enhanced chemiluminescence (eg ECL; Amersham Life Science, Buckinghamshire, UK). Each gel included three lanes containing 0.5, 1, and 2 ng of synthetic Aβ40 (Keck Laboratory, Yale University, New Haven, Conn.) as reference standards.
Blot films were scanned by using a suitable imaging system such as the UVP gel documentation system, and densitometry performed using suitable software, eg UVP Labworks. The dynamic range of the film/scanner was determined by using a step tablet (No. 911ST600, Kodak, Rochester N.Y.), a calibrated film exposed by the manufacturer to provided steps of known increasing intensity. The quantifiable range of signal intensity for densitometric analysis of the mono- and dimeric Aβ bands was based on the comparison with a curve obtained by scanning and densitometry of the step tablet.
All samples were analyzed at least twice, and gel loadings and dilutions were adjusted to fit within the quantifiable region of the standard curve. The proportion of ‘soluble’ to ‘insoluble’ Aβ may be used to determine the efficiency of extraction of a test compound compared with the efficiency of a known compound. The insoluble Aβ being comprised of the pelletable fraction derived from the insoluble amyloid plaque from the above cortical samples and the soluble fraction comprising monomeric and/or oligomeric soluble Aβ.

Aβ 1-42 = target: T1, Aβ 1-42 (Homo sapiens, UniProt P05067); assay: Fluorometric H2O2 assay (inhibition of Abeta H2O2 production); format: biochemical
T1 construct: The reaction solutions contained Aβ 1-42 at concentrations
T1 sequence (P05067 672-713 limits assumed): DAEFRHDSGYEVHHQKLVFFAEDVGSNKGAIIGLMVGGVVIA
How it was run: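 Copper-dependent Aβ H2O2 production measured fluorometrically with deacetylated dichlorofluorescein plus HRP in PBS, pH 7.4. Incubation 60 min at 37 C, test compound included in wells. H2O2 quantified against H2O2 standards.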

[2] = test system: primary cortical neuronal cultured cells; assay: Test compound cytotoxicity, MTS assay, primary cortical neuronal cultures; format: cell-based, mouse; conditions: for Cytotox (% viable) Neuronal cells at 1 μM: 1 μM test compound; for Cytotox (% viable) Neuronal cells at 10 μM: 10 μM test compound
How it was run: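 Primary cortical neurons were cultured five days in Neurobasal/B27, then exposed on day six to compounds (from 2.5 mM DMSO stocks) in medium minus antioxidants, in triplicate for 4 days at 37° C. Viability was measured by MTS, 2 h at 37° C, absorbance at 560 nm.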

[3] = target: T2, Abeta:Zn (25:50 μM) Synthetic Aggregations (Homo sapiens, UniProt P05067); assay: Disaggregation of Abeta:Zn synthetic aggregates (ThT fluorescence); format: biochemical; conditions: for Disaggregation % Aggregate reduction at 5 μM: 5 μM test compound
T2 construct: PB Compound Mediated Dissolution of Aggregated Abeta 1-42; purchased Keck Laboratory, Yale University School of Medicine
T2 sequence (P05067 672-713 limits assumed): as above
Description: PB Compound Mediated Dissolution of Aggregated Abeta 1-42
Abeta1-42, is available from the Keck Laboratory, Yale University School of Medicine. PBS (pH 6.6): Sigma Cat# D-8662. Zn(ZnCl2): BDH Cat#100884E. (Dissolved in water in 1 mM concentration) DMSO: Ajax Cat#2225. Thioflavin T: Sigma Cat# T-3516. (Dissolved in water in 1 mM concentration)
By way of example of an amyloid composition, Abeta is dissolved in distilled water and peptide concentration is assessed by measured absorption at 214 nm in UV spectrometer. An aggregation reactive mixture (per one concentration of one testing compound) is set us as follows: Abeta: 25 μM, ZnCl2 50 μM, ThT 50 μM, PBS to make up to 500 μl. The tube is wrapped with foil and incubated at 37 degrees by rotation for 24 hours. A serial dilution of each test compound is made up in DMSO, for example: 100 μM, 500 μM, 1000 μM, 2500 μM and 5000 μM. The final concentrations are 1, 5, 10, 25 and 50 μM, 5 μl of each of these compounds is placed in a centrifuge tube and 5 μl of DMSO is added to both negative and positive control tubes. 495 μl of aggregates (after 24 hours incubation) is added to the centrifuge tube. The negative control is PBS plus ZnCl2 and ThT and DMSO. The positive control is aggregates plus DMSO. The tubes are incubated at 37 degrees for further 2 hours with rotation. Samples are measured for ThT fluorescence using an LS55 (Perkin Elmer) fluorimeter in a cuvette (500 μl volume). The excitation wavelength is 450 nm and the emission wavelength is 480 nm. Data are analyzed using graph pad prism program. The tested compounds included so called “PB” compounds.

[4] = Mice plasma concentration after oral dose; format: in vivo; conditions: for Mice plasma concentration: 30 min to 4 h after single or repeat oral dose of 30 mg/kg
[5] = Toxicity, visual observations in mice; conditions: 30 mg/kg; duration and visual observations
[6] = test system: M17 human neuroblastoma cells; assay: Cytotoxicity, M17 human neuroblastoma cells; format: cell-based; conditions: for Cytotox (% viable) M17 cells at 1 μM: 1 μM test compound; for Cytotox (% viable) M17 cells at 10 μM: 10 μM test compound
Description: Assay 3. MTS Assay for Cell Viability
Cell viability is determined using the MTS assay. Culture medium is replaced with fresh neurobasal medium plus B27 supplements minus antioxidants. 1/10th volume MTS solution (Cell Titre 96 Aqueous One, Promega Corporation) and incubated at 37° C., 2 hrs. 200 microliter aliquots are measured with a spectrophotometer at 560 nm.

[7] = max effect across the concentration range, referenced to baseline PBS
[8] = concentration required to inhibit 50% of Abeta H2O2 production, read-out: H2O2 IC50

Structure (SMILES)	BAS max effect [1]	IC50 (Aβ 1-42) [µM]	Cytotox (% viable) Neuronal cells at 1 μM [2] [%]	Cytotox (% viable) Neuronal cells at 10 μM [2] [%]	Disaggregation EC50 ([3]; Abeta:Zn 25:50 μM aggregates)	BAS max effect [1, 7] [%]	IC50 (Aβ 1-42; [8]) [µM]	Disaggregation % Aggregate reduction at 5 μM [3] [%]	EC50 ([3]; Abeta:Zn 25:50 μM aggregates) [µM]	Mice plasma concentration [4]	Toxicity at 30 mg/kg [5]	Cytotox (% viable) M17 cells at 1 μM [6] [%]	Cytotox (% viable) M17 cells at 10 μM [6] [%]	Mice plasma concentration at 120 mg/kg ([4]; 120 mg/kg) [ng/mL]
Oc1cccc2cccnc12 [PB 42]	BAS: 227% (1 μM- 100 μM)	0.7	93	36	Inactive									
Oc1c(Cl)cc(Cl)c2cccnc12 [PB 45]			98	75		387	0.4	36.1	8.5					
Oc1c(Br)cc(Br)c2cccnc12 [PB 47]			100	94		412	0.5	50	5					
Cc1ccccc1-c1cc(I)c(O)c2ncccc12 [PB 861]			99	38		439	< 0.91	31.4						
NCc1ccc2cccc(O)c2n1 [PB 968]			101	97		390	0.26	31.6	16.3					
Oc1cccc2ccc(-c3ccccn3)nc12 [PB 1006]			107	75		463	0.53	49.5	5.27					
O=c1c(-c2ccc(Cl)cc2)cnc2c(O)c(I)ccn12 [PB 1063]			41	33				40.5	19.7	Up to 450 ng/ mL in mice ng/mL	10 days, mild toxic signs			
CN(C)Cc1cnc2c(Cl)cc(Cl)c(O)c2n1.Cl [PB 1066]			92	95			> 10	35	> 50	Up to 1000 ng/mL in mice				
CCn1nccc1-n1cnc2c(O)c(Cl)cc(Cl)c2c1=O [PB 1088]			102	94				16.4	> 20	Up to 3896 ng/ mL ng/mL	10 days, none			
Cc1ccc(-n2cnc3c(O)c(Cl)cc(Cl)c3c2=O)nc1 [PB 1089]			96	83				16.4	> 20	Up to 39 ng/ mL ng/mL	10 days, none			
O=c1c2c(Cl)cc(Cl)c(O)c2ncn1CCc1ccccn1 [PB 1091]			100	92				23.4	> 20	Up to 59 ng/ mL ng/mL	10 days, none			
COc1ccc(-n2cnc3c(O)c(Cl)cc(Cl)c3c2=O)cn1 [PB 1093]			122	93				16	> 20	Up to 80 ng/ mL ng/mL	10 days, none			
Br.CC(C)n1cnc2c(O)c(Cl)cc(Cl)c2c1=O [PB 1108]			104	71				46.5	> 20	Up to 383 ng/ mL ng/mL	10 days, none	94.3	74.5	
CCCn1cnc2c(O)c(I)ccc2c1=O [PB 1119]							0.28	51.5	2.72	Up to 1096 ng/ mL ng/mL	10 days, none			
O=c1c2ccc(I)c(O)c2ncn1Cc1ccccn1 [PB 1122]							0.52	62.4	0.66	Up to 1538 ng/ mL ng/mL	10 days, none	97.5	79.5	
CCn1cnc2c(O)c(I)ccc2c1=O [PB 1123]							0.29	25	0.91		10 days, none			
CCCCc1cnc2c(O)cccn2c1=O [PB 1144]							0.32	15.5	9.1		10 days, none	73.6	37	
CN(C)Cc1ccc2c(Cl)cc(I)c(O)c2n1 [PB 1177]							0.29	79	2.4		1 day, 3/4 deaths	97.9	24.4	
CCc1c(O)c(O)cc[n+]1CC.[Cl-] [PB 1270]										≤ 493.7 ng/mL	10 days, none	102.8	108.3	≤ 4455
